# Assay results: patent US9428519B2, “Acylated derivative of homoharringtonine, preparation method therefor, and application thereof” (HANGZHOU BENSHENG PHARMACEUTICAL CO., LTD., priority 2011, dated 2016)
# How the values were obtained:
# [1] = test system: RPMI8226 (multiple myeloma); assay: MTT growth inhibition of multiple myeloma cells, 72 h; assay type: cell-based, human; details: Homo sapiens, RPMI-8226, MTT
# Summary of the method: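 RPMI8226 cells (6000/well) in 1640 medium with 10% FBS were exposed to graded compound concentrations for 72 h at 37 °C, 5% CO2. Viable cells were read by MTT, normalised to untreated control as 100% viability, and 72 h IC50 calculated.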
# [2] = test system: H9 (acute lymphoblastic leukemia, ALL); assay: MTT growth inhibition of leukemia cells, 72 h; assay type: cell-based, human; details: for IC50 / IC90: Homo sapiens, MTT
# Summary of the method: (§1)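 Seed 6000 cells/well (1640, 10% FBS); add compound at several concentrations, mix; incubate 72 h, 37 °C, 5% CO2; MTT read; % viability vs untreated control; IC50 at 72 h.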
# [3] = test system: Jurkat (acute lymphoblastic leukemia, ALL); assay: MTT growth inhibition of leukemia cells, 72 h; assay type: cell-based, human; details: Homo sapiens, Jurkat
# Summary of the method: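 Jurkat human acute lymphoblastic leukemia cells were seeded at 6000 cells per well in 96-well plates containing 1640 medium with 10% fetal bovine serum. Test compounds were added across a range of concentrations, and plates were held at 37° C. in 5% CO2 for 72 hours before viable cells were quantified by MTT.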
# [4] = test system: Kasumi-1 (acute myeloid leukemia M2 type, AML-M2); assay: MTT growth inhibition of leukemia cells, 72 h; assay type: cell-based, human; details: for IC50 / IC90: Homo sapiens, Kasumi 1, MTT
# Summary of the method: as §1
# [5] = test system: K562/adr (drug-resistant, chronic myeloid leukemia, CML); assay: MTT growth inhibition of leukemia cells, 72 h; assay type: cell-based, human; details: for IC50 / IC90: Homo sapiens, K562/Adr, MTT
# Summary of the method: as §1
# [6] = test system: NB4 (acute promyelocytic leukemia, AML); assay: MTT growth inhibition of leukemia cells, 72 h; assay type: cell-based, human; details: for IC50 / IC90: Homo sapiens, MTT
# Summary of the method: as §1
# [7] = test system: CaES-17 (esophageal cancer cell); assay: MTT growth inhibition of human solid tumor cells, 72 h; assay type: cell-based; details: Homo sapiens, CaEs17
# Summary of the method: (§2)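 MTT determination of viable cells gives percent viability, normalised to untreated wells taken as 100%. Cells (4000 per well) grew 24 h in serum-supplemented DMEM high glucose, then faced graded compound concentrations for 72 h at 37° C under 5% CO2.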
# [8] = test system: Hep-2 (laryngeal carcinoma); assay: as above; assay type: cell-based; details: Homo sapiens, HEp-2
# Summary of the method: as §2
# [9] = test system: PANC-1 (pancreatic cancer); assay: as above; assay type: cell-based; details: for IC50 / IC90: Homo sapiens, PANC-1, MTT
# Summary of the method: as §2
# [10] = test system: Hela (human cervical cancer cell); assay: as above; assay type: cell-based; details: for IC50 / IC90: Homo sapiens, HeLa, MTT; for anti-Hela effect relative to homoharringtonine: vs HHT
# Summary of the method: as §2
# [11] = test system: MG63 (osteosarcoma); assay: as above; assay type: cell-based; details: for IC50 / IC90: Homo sapiens, MG-63, MTT; for anti-MG63 effect relative to homoharringtonine: vs HHT
# Summary of the method: as §2
# [12] = test system: RKO (human colon adenocarcinoma cell); assay: as above; assay type: cell-based; details: for IC50 / IC90: Homo sapiens, MTT; for anti-RKO effect relative to homoharringtonine: vs HHT
# Summary of the method: as §2
# [13] = test system: MGC 803 (human gastric cancer cell); assay: as above; assay type: cell-based; details: Homo sapiens, MGC-803
# Summary of the method: as §2
# [14] = test system: SK-OV-3 (ovarian cancer cell); assay: as above; assay type: cell-based; details: Homo sapiens, SK-OV-3, MTT
# Summary of the method: as §2
# [15] = test system: PC-3 (prostate cancer); assay: as above; assay type: cell-based; details: for IC50 / IC90: Homo sapiens, MTT
# Summary of the method: as §2
# [16] = test system: A549 (human lung cancer); assay: as above; assay type: cell-based; details: Homo sapiens, A549
# Summary of the method: as §2
# [17] = test system: CNE (nasopharyngeal carcinoma cell); assay: as above; assay type: cell-based; details: for IC50 / IC90: Homo sapiens, MTT; for anti-CNE effect relative to homoharringtonine: vs HHT
# Summary of the method: as §2
# [18] = test system: U87 MG (malignant glioma cell); assay: as above; assay type: cell-based; details: Homo sapiens, U-87 MG
# Summary of the method: as §2
# [19] = test system: Huh7 (human liver cancer cell); assay: as above; assay type: cell-based; details: Homo sapiens, Huh-7
# Summary of the method: as §2
# [20] = test system: Becap37 (human breast cancer cell); assay: as above; assay type: cell-based; details: Homo sapiens
# Summary of the method: as §2
structure (smiles),measurement,setting,value
COC(=O)C[C@](O)(CCCC(C)(C)OC(=O)Cc1ccccc1)C(=O)O[C@@H]1C(OC)=C[C@]23CCCN2CCc2cc4c(cc2[C@H]13)OCO4 [BS-HH-074],IC50,[1],0.003 µg/mL
same,IC90,[1],0.015 µg/mL
same,IC50,[2],0.004 µg/mL
same,IC90,[2],0.01 µg/mL
same,improvement of anti-H9 activity compared with homoharringtonine,[2]; vs HHT,more than 2 fold
same,IC50,[3],0.0038 µg/mL
same,IC90,[3],≥ 16 µg/mL
same,IC50,[4],0.001 µg/mL
same,IC90,[4],0.005 µg/mL
same,improvement of anti-Kasumi-1 activity compared with homoharringtonine,[4]; vs HHT,more than 5 fold
same,IC50,[5],0.007 µg/mL
same,IC90,[5],14.1 µg/mL
same,improvement of anti-K562/adr activity compared with homoharringtonine,[5]; vs HHT,more than 5 fold
same,IC50,[6],0.003 µg/mL
same,IC90,[6],0.007 µg/mL
same,improvement of anti-NB4 activity compared with homoharringtonine,[6]; vs HHT,more than 2 fold
same,IC50,[7],0.015 µg/mL
same,IC90,[7],16 µg/mL
same,IC50,[8],0.006 µg/mL
same,IC90,[8],> 16 µg/mL
same,IC50,[9],0.014 µg/mL
same,IC90,[9],> 16 µg/mL
same,IC50,[10],0.0034 µg/mL
same,IC90,[10],12.6 µg/mL
same,anti-Hela effect relative to homoharringtonine,[10],> 5.6 fold
same,IC50,[11],0.006 µg/mL
same,IC90,[11],1.18 µg/mL
same,anti-MG63 effect relative to homoharringtonine,[11],substantially superior
same,IC50,[12],0.002 µg/mL
same,IC90,[12],0.006 µg/mL
same,IC50,[13],0.006 µg/mL
same,IC90,[13],0.055 µg/mL
same,IC50,[14],0.027 µg/mL
same,IC90,[14],> 16 µg/mL
same,IC50,[15],0.0077 µg/mL
same,IC90,[15],> 16 µg/mL
same,anti-PC-3 effect relative to homoharringtonine,[15]; vs HHT,more than 10 fold
same,IC50,[16],0.007 µg/mL
same,IC90,[16],> 16 µg/mL
same,IC50,[17],0.0014 µg/mL
same,IC90,[17],> 16 µg/mL
same,anti-CNE effect relative to homoharringtonine,[17],> 27 fold
same,IC50,[18],0.012 µg/mL
same,IC90,[18],0.08 µg/mL
same,IC50,[19],0.003 µg/mL
same,IC90,[19],0.05 µg/mL
same,IC50,[20],0.003 µg/mL
same,IC90,[20],8.38 µg/mL
COC(=O)C[C@](O)(CCCC(C)(C)OC(=O)c1ccco1)C(=O)O[C@@H]1C(OC)=C[C@]23CCCN2CCc2cc4c(cc2[C@H]13)OCO4 [BS-HH-059],IC50,[1],0.006 µg/mL
same,IC90,[1],0.039 µg/mL
same,IC50,[2],0.007 µg/mL
same,IC90,[2],0.02 µg/mL
same,IC50,[3],0.003 µg/mL
same,IC90,[3],≥ 16 µg/mL
same,IC50,[4],0.005 µg/mL
same,IC90,[4],0.012 µg/mL
same,IC50,[5],0.03 µg/mL
same,IC90,[5],0.35 µg/mL
same,IC50,[6],0.006 µg/mL
same,IC90,[6],0.012 µg/mL
same,IC50,[7],0.029 µg/mL
same,IC90,[7],16 µg/mL
same,IC50,[8],0.015 µg/mL
same,IC90,[8],> 16 µg/mL
same,IC50,[9],0.029 µg/mL
same,IC90,[9],> 16 µg/mL
same,IC50,[10],0.014 µg/mL
same,IC90,[10],16 µg/mL
same,IC50,[11],0.02 µg/mL
same,IC90,[11],3.08 µg/mL
same,anti-MG63 effect relative to homoharringtonine,[11],substantially superior
same,IC50,[12],0.001 µg/mL
same,IC90,[12],0.015 µg/mL
same,anti-RKO effect relative to homoharringtonine,[12],substantially superior
same,IC50,[13],0.021 µg/mL
same,IC90,[13],0.11 µg/mL
same,IC50,[14],0.08 µg/mL
same,IC90,[14],> 16 µg/mL
same,IC50,[15],0.08 µg/mL
same,IC90,[15],> 16 µg/mL
same,IC50,[16],0.03 µg/mL
same,IC90,[16],> 16 µg/mL
same,IC50,[17],0.031 µg/mL
same,IC90,[17],> 16 µg/mL
same,IC50,[18],0.023 µg/mL
same,IC90,[18],0.18 µg/mL
same,IC50,[19],0.012 µg/mL
same,IC90,[19],0.081 µg/mL
same,IC50,[20],0.007 µg/mL
same,IC90,[20],7.4 µg/mL
COC(=O)C[C@](O)(CCCC(C)(C)OC(=O)c1scnc1C)C(=O)O[C@@H]1C(OC)=C[C@]23CCCN2CCc2cc4c(cc2[C@H]13)OCO4 [BS-HH-0721],IC50,[1],0.002 µg/mL
same,IC90,[1],0.014 µg/mL
same,IC50,[2],0.003 µg/mL
same,IC90,[2],0.009 µg/mL
same,IC50,[3],0.002 µg/mL
same,IC90,[3],≥ 16 µg/mL
same,IC50,[4],0.002 µg/mL
same,IC90,[4],0.004 µg/mL
same,IC50,[5],0.01 µg/mL
same,IC90,[5],0.05 µg/mL
same,IC50,[6],0.003 µg/mL
same,IC90,[6],0.005 µg/mL
same,IC50,[7],0.014 µg/mL
same,IC90,[7],16 µg/mL
same,IC50,[8],0.004 µg/mL
same,IC90,[8],> 16 µg/mL
same,IC50,[9],0.009 µg/mL
same,IC90,[9],> 16 µg/mL
same,anti-PANC-1 effect relative to homoharringtonine,[9]; vs HHT,> 4 fold
same,IC50,[10],0.005 µg/mL
same,IC90,[10],16 µg/mL
same,anti-Hela effect relative to homoharringtonine,[10],> 4.0 fold
same,IC50,[11],0.006 µg/mL
same,IC90,[11],0.44 µg/mL
same,anti-MG63 effect relative to homoharringtonine,[11],substantially superior
same,IC50,[12],0.0009 µg/mL
same,IC90,[12],0.005 µg/mL
same,anti-RKO effect relative to homoharringtonine,[12],substantially superior
same,IC50,[13],0.006 µg/mL
same,IC90,[13],0.019 µg/mL
same,IC50,[14],0.022 µg/mL
same,IC90,[14],> 16 µg/mL
same,IC50,[15],0.04 µg/mL
same,IC90,[15],> 16 µg/mL
same,IC50,[16],0.01 µg/mL
same,IC90,[16],> 16 µg/mL
same,IC50,[17],0.0037 µg/mL
same,IC90,[17],> 16 µg/mL
same,anti-CNE effect relative to homoharringtonine,[17],more than 10 fold
same,IC50,[18],0.008 µg/mL
same,IC90,[18],0.07 µg/mL
same,IC50,[19],0.0022 µg/mL
same,IC90,[19],0.038 µg/mL
same,IC50,[20],0.003 µg/mL
same,IC90,[20],8.17 µg/mL
